From PubChem BioAssay AID652166 (The Scripps Research Institute Molecular Screening Center, 2013)
Calls of active or inactive are those of the source. The rule behind the calls is not given here.

Test system: NOD2-RIPK2 signaling cell assay, absorbance 620 nm
Assay: NOD2-RIPK2 signaling inhibitors, IC50, late-stage follow-up, cell-based, absorbance 620 nm (AID 652166)

IC50, inactive:
O=[N+]([O-])c1cccc(S(=O)(=O)N2CCCCCC2)c1 > 10 µM
Cc1cc(S(=O)(=O)N2CCCCCC2)ccc1F > 10 µM
Cc1ccc(S(=O)(=O)N2CCCCCC2)cc1[N+](=O)[O-] > 10 µM
O=[N+]([O-])c1cc(S(=O)(=O)N2CCCCCC2)ccc1F > 10 µM
O=S(=O)(c1ccc(F)cc1)N1CCCCCC1 > 10 µM
Cc1nc([N+](=O)[O-])c(Br)n1Cc1ccc(Cl)c(Cl)c1 > 10 µM
COc1ccc(C(C[N+](=O)[O-])n2nc(C)cc2C)cc1 (stereo unspecified) > 10 µM
Cc1ccc(C(C[N+](=O)[O-])n2nc(C)cc2C)cc1 (stereo unspecified) > 10 µM
O=S(=O)(c1ccccc1)N1CCCCCC1 > 10 µM
Cc1ncc([N+](=O)[O-])n1Cc1ccc(Cl)c(Cl)c1 > 10 µM
Cc1nc([N+](=O)[O-])c(Br)n1Cc1ccccc1 > 10 µM
